Source: patent US20180327364A1, “MTOR INHIBITORS AND METHODS OF USE THEREOF” (Brandeis University, priority 2015, published 2018)

Key:
firefly luciferase [1] = assay: Luciferase assay in stably transduced luciferase HEK-293T cells; type: cell-based; details: 100 μM Cbz-B3A, 4 h, anti-HA immunoblot
HEK-293T cells = assay: CellTiter-Glo proliferation, HEK-293T; type: cell-based; details: Homo sapiens, 48 h
Method: (§1) To determine cellular growth, CellTiter-Glo luminescent cell viability assay (Promega) was used per the manufacturer's instruction. To determine cytotoxicity, LDH release was measured with the LDH Cytotoxicity Assay Kit (Pierce) according to the manufacture's protocol. For 4 h assays, 96 well plates were seeded at 75,000 cells/mL for BaF3/p210 cells or K562 cells. For HEK-293T cells, 10,000 cells/well were plated 24 h before treatment. Cells were treated for 4 h at 37° C. and […] was removed from every well and used in the LDH Cytotoxicity assay per the manufacturer's protocol. For 48 h assays, 7,500 cells/mL of BaF3/p210 or K562 cells were incubated with compound at 37° C. for 48 h (200 μL/well). For HEK-293T cells, 1,000 cells/well were plated 24 h prior to compound treatment. After treatment, 50 μL was removed from each well for the LDH assay for all cell lines and 100 μL of mixed cells were removed and used with the CellTiter-Glo kit for K562 and BaF3/p210 cells. For HEK-293T cells, wells were treated directed with the CellTiter-Glo kit. Cytotoxicity or viability was measured by luminosity and absorbance on a microplate reader.

mTOR = mTOR level and mTOR phosphorylation immunoblot in HEK-293T cells; type: cell-based; details: 10 μM, 4 h
Method: (§2) Quantification of western blots was performed with ImageJ. Cells were lysed in RIPA buffer (1% NP-40, 1% NaDeoxycholate, 0.1% SDS, 10 mM TrisCl, 10 mM β-glycerophosphate, 10 mM Na pyrophosphate, 50 mM NaF, 200 μM Na vanadate, 1 mM EDTA, 500 μM EGTA, 1% benzonase, and supplemented with complete (Roche Diagnostics) protease inhibitors).

[2] = tested on: p70s6k phosphorylation (mTORC1); assay: p70s6k phosphorylation immunoblot in HEK-293T cells; type: cell-based
Method: as §2

K562 cells = assay: CellTiter-Glo proliferation, K562; type: cell-based; details: Homo sapiens, 48 h
Method: as §1

NCI-60 cell lines = assay: NCI-60 DTP Human Tumor Cell Line Screen, all cell lines; type: cell-based; details: 10 μM, 48 h
Method: Screen was conducted as previously described, performed at Developmental Therapeutics Program NCI/NIH.

TSC2 = TSC2 level immunoblot in HEK-293T cells; type: cell-based; details: 10 μM, 4 h; p=0.19 vs DMSO
Method: as §2

[3] = target: T1, recombinant firefly luciferase (Photinus pyralis, UniProt P08659); assay: Recombinant luciferase assay; type: biochemical; details: 100 μM compound, 10 min incubation
T1 construct: purchased Promega
Method: (§3) Stably transduced luciferase HEK-293T cells were plated in 96-well plates 24 h prior to treatment with 100 μM of Cbz-B3A, amine-B3A, acetyl-B3A, and Cbz-acetyl. After 4 h, cells were harvested and measured with Luciferase Assay System with Reporter Lysis Buffer from Promega according to the manufacturer's protocol. Before the addition of luciferin, protein concentration was measured by removing 2 μl of lysate from each well and adding it to diluted Bio-Rad Protein Assay Dye Reagent Concentrate, and the absorbance was measured at OD595. The protein concentration was used to normalize luciferase signal. For translation assays, cells were pretreated for 15 min with 100 μg/mL cycloheximide or 6 μM bortezomib. For the recombinant luciferase assay, Quantilum Recombinant Luciferase (Promega) was diluted 1:250,000 in reporter lysis buffer with 1 mg/mL BSA then mixed 1:1 with 200 μM compound in the same buffer for a final dilution of 1:500,000 and 100 μM compound in 20 μL. This was incubated for 10 min at room temperature then measured with Luciferase Assay System with Reporter Lysis Buffer from Promega according to the manufacturer's protocol.

[4] = tested on: 4EBP1 phosphorylation by mTORC1; assay: 4EBP1 phosphorylation immunoblot in HEK-293T cells; type: cell-based; details: 4 h
Method: as §2

[5] = tested on: K562, BaF3/p210, and HEK-293T cells; assay: LDH release cytotoxicity assay; type: cell-based; details: 4 and 48 h
Method: as §1

BaF3/p210 cells = assay: CellTiter-Glo proliferation, BaF3/p210; type: cell-based; details: Mus musculus, 48 h
Method: as §1

firefly luciferase [6] = assay: Luciferase assay in stably transduced luciferase HEK-293T cells; type: cell-based
Method: Firefly luciferase and firefly luciferase-eDHFR were cloned into pBABE-puro vector which was a gift from Hartmut Land & Jay Morgenstern & Bob Weinberg (Addgene plasmid #1764). pBABE-puro-luciferase was co-transfected with VSV-G into GP2-293 cells (Retro-X Universal Packaging System, Clonetech, Mountain View, Calif.) with TransIT-2020 (MirusBio) according to TransIT-2020's manufacture's protocol. After 48 h, viral supernatant was harvested, spun down, filtered with a […] syringe filter, and added to HEK-293T supplemented with 8 μg/mL polybrene. After 4 h of infection, the media was replaced with fresh media. 48 h later, media was replaced with media containing 3 μg/mL puromycin. Media was replaced with fresh media containing puromycin every 3-4 days. After 2 weeks of puromycin selection, the cells were grown out from single cell colonies and screened for luciferase expression.
as §3

eIF2α = eIF2α phosphorylation immunoblot in HEK-293T cells; type: cell-based; details: 1 h; tunicamycin 5 μg/mL, thapsigargin 500 nM; compared with vehicle
Method: as §2

T1 sequence (P08659 whole entry): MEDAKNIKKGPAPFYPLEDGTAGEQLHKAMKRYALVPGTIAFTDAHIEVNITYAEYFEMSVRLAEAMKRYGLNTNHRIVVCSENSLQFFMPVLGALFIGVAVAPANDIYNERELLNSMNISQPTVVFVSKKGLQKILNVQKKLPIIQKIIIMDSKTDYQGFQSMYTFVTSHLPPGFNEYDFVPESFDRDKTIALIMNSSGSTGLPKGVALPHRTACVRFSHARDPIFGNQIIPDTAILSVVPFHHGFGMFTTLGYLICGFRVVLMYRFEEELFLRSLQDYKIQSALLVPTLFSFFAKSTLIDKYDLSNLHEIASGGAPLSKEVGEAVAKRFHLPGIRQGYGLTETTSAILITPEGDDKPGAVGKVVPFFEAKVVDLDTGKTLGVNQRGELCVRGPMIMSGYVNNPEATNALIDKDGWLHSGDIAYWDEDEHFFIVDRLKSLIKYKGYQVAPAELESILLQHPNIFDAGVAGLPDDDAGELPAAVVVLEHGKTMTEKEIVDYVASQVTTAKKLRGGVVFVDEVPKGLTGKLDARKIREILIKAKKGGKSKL

CC(C)(C)OC(=O)/N=C(\NCCC[C@H](NC(=O)OC(C)(C)C)C(=O)NCCCCCCNC(=O)OCc1ccccc1)NC(=O)OC(C)(C)C [Cbz-B3A] was tested, and the “decrease in amount of luciferase protein” value (firefly luciferase [1]) was “approximately 40%”, the inhibition at 10 µM (HEK-293T cells) was 64% and the “Ser2481 phosphorylation of mTOR” value (mTOR) was “no change in Ser2481 phosphorylation”. For the same compound, the “levels of mTOR” value (mTOR) was “did not change”, the “phosphorylation of mTOR at Ser2448” value (mTOR) was “only a small effect” and the “p70s6k Ser371 phosphorylation” value ([2]; 10 μM, 4 h) was “did not inhibit phosphorylation”. For the same compound, the EC50 ([2]; Homo sapiens, HEK-293T, 4 h, read-out: EC50 of inhibition of p70s6k Thr389 phosphorylation) was ~5 µM, the “phosphorylation retained at Thr389 of p70s6k” value ([2]; at maximum inhibition) was “approximately 30%” and the inhibition at 10 µM (K562 cells) was 52%. The “average decrease in proliferation, all cell lines” value (NCI-60 cell lines) was 29%, the “amount of TSC2” value (TSC2) was “appeared to increase the amount of TSC2” and the “recombinant firefly luciferase signal (enzymatic activity)” value [3] was “no reduction of signal”. For the same compound, the “4EBP1 phosphorylation (hyper- vs hypo-phosphorylated band)” value ([4]; Cbz-B3A 10 μM, Cbz-acetyl 10 μM, rapamycin 20 nM) was “clear shift from hyper-phosphorylation to hypo-phosphorylation”, the EC50 ([4]; Homo sapiens, HEK-293T, read-out: EC50 of inhibition of 4EBP1 phosphorylation) was ~2 µM and the “cytotoxicity by release of lactate dehydrogenase” value [5] was “not cytotoxic”. For the same compound, the inhibition at 10 µM (BaF3/p210 cells) was 68%, the “firefly luciferase signal, co-treatment with bortezomib compared to bortezomib alone” value (firefly luciferase [6]; 6 μM bortezomib pretreatment 15 min, then 100 μM Cbz-B3A 4 h) was “decreased” and the “luciferase activity, co-treatment with cycloheximide” value (firefly luciferase [6]; 100 μg/mL cycloheximide pretreatment 15 min, then 100 μM Cbz-B3A 4 h) was “no further decrease in luciferase activity”. The “wild type luciferase signal” value (firefly luciferase [6]; HEK-293T cells expressing HA-luciferase, 100 μM, 4 h) was “decreased the wild type luciferase signal” and the eIF2α phosphorylation (eIF2α) was “no increase in eIF2α phosphorylation”.
